Like-named read-outs stand apart in the source and are kept apart here. *1 amine or outer side, *2 acyl side, *3 side chain or, on linkers, in order; H or OH if unused. Where a SMILES comes first, the peptide text is derived from it. Bridges are numbered along the chain shown (N, C = ends). [ ]: non-standard residue; d: D form. The star is where a group is joined. hPhe(3-Cl-4-CF3) = N[C@@H](CCc1ccc(C(F)(F)F)c(Cl)c1)C(=O)O; X17 = CCCCN([C@@H](Cc1ccc(C(F)(F)F)cc1)C(=O)[*:2])[*:1]; NPrPhe(4-CF3) = CCCN[C@@H](Cc1ccc(C(F)(F)F)cc1)C(=O)O; NMeGly(cPent) = CN[C@H](C(=O)O)C1CCCC1; Pro(4,4-Me2) = CC1(C)CN[C@H](C(=O)O)C1; NMeD = CN[C@@H](CC(=O)O)C(=O)O; NMeL = CN[C@@H](CC(C)C)C(=O)O; Morpholide = C1CN(*)CCO1; NMeA = CN[C@@H](C)C(=O)O; Ac5c = NC1(C(=O)O)CCCC1; Aze = O=C(O)[C@@H]1CCN1; Sar = CNCC(=O)O
How the values were obtained:
[1] = biological target: GDP-bound HRAS wild-type protein (Homo sapiens, UniProt P01112); test: Binding to HRAS by surface plasmon resonance (SPR), Single Cycle Kinetics
[2] = biological target: GDP-bound NRAS wild-type protein (Homo sapiens, UniProt P01111); test: Binding to NRAS by surface plasmon resonance (SPR), Single Cycle Kinetics
[3] = biological target: GDP-bound KRAS wild-type protein (Homo sapiens, UniProt P01116); test: Binding to KRAS by surface plasmon resonance (SPR), Single Cycle Kinetics; details: GDP-bound KRAS wild-type protein, read-out: KRAS KD
[4] = SPR, GDP-bound HRAS wild-type protein vs GDP-bound KRAS wild-type protein
[5] = SPR, GDP-bound NRAS wild-type protein vs GDP-bound KRAS wild-type protein
[6] = SPR Single Cycle Kinetics, 1:1 binding model

Chain of GDP-bound HRAS wild-type protein (P01112 whole entry): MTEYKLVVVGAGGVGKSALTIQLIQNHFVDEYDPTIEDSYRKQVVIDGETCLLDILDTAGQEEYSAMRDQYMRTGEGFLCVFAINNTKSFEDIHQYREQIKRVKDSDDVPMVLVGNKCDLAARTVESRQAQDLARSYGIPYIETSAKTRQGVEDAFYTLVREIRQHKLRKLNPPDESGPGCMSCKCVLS
Chain of GDP-bound NRAS wild-type protein (P01111 whole entry): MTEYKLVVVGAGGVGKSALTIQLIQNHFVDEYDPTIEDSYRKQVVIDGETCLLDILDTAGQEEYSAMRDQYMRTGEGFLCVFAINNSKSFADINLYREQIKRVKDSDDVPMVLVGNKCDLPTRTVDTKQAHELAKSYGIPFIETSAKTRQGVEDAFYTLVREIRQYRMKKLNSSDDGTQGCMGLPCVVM
Chain of GDP-bound KRAS wild-type protein (P01116 whole entry): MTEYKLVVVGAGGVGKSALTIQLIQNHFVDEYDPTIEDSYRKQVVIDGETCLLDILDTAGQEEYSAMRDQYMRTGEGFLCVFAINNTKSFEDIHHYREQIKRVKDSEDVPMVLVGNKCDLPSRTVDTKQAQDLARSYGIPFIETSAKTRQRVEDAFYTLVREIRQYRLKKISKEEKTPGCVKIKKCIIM

Structure (SMILES) | Kd [3, 6] [nM] | Kd ([3]; SPR, Single Cycle Kinetics) [nM] | HRAS/KRAS (ratio of KD value for HRAS to KD value for KRAS) [1, 4] | NRAS/KRAS (ratio of KD value for NRAS to KD value for KRAS) [2, 5] | other results
CCCN1C(=O)CN(C)C(=O)CN(C)C(=O)[C@H]([C@@H](C)CC)NC(=O)[C@H](CC(C)C)N(C)C(=O)C[C@@H](C(=O)N2CCOCC2)N(C)C(=O)[C@H](C2CCCC2)N(C)C(=O)C2(CCCC2)NC(=O)[C@@H]2CC(C)(C)CN2C(=O)[C@H](CCc2ccc(C(F)(F)F)c(Cl)c2)NC(=O)CN(C)C(=O)[C@@H]1Cc1ccc(C(F)(F)F)cc1 [PP0446] ([NMeL]I[Sar][Sar][NPrPhe(4-CF3)][Sar][hPhe(3-Cl-4-CF3)][Pro(4,4-Me2)][Ac5c][NMeGly(cPent)][NMeD]-Morpholide; lactam N-11) | 0.1 | – | – | – | HRAS/KRAS (ratio of KD value with respect to HRAS to KD value with respect to KRAS) [1, 4]: C (A compound having a KD ratio of 0.1 or more and less than 3 is denoted as C); NRAS/KRAS (ratio of KD value with respect to NRAS to KD value with respect to KRAS) [2, 5]: B (a compound having 3 or more and less than 10 is denoted as B)
CCO[C@@H]1C[C@H]2C(=O)NC3(CCC3)C(=O)N(C)[C@@H](C3CCCC3)C(=O)N(C)[C@H](C)CC(=O)N(C)[C@@H](CC(C)C)C(=O)N[C@@H]([C@@H](C)CC)C(=O)N(C)CC(=O)N(C)[C@H]3C/C=C\CCN(C3=O)[C@@H](Cc3ccc(C)cc3)C(=O)N(C)CC(=O)N[C@@H](CCc3cc(F)c(C(F)(F)F)c(F)c3)C(=O)N2C1 [PP1417] | – | – | – | – | HRAS/KRAS (ratio of KD value for HRAS to KD value for KRAS) ([1]; SPR, GDP-bound HRAS wild-type protein vs GDP-bound KRAS wild-type protein, KD ratio class): B (a compound having 3 or more and less than 10 is denoted as B); NRAS/KRAS (ratio of KD value for NRAS to KD value for KRAS) ([2]; SPR, GDP-bound NRAS wild-type protein vs GDP-bound KRAS wild-type protein, KD ratio class): B (a compound having 3 or more and less than 10 is denoted as B); Kd ([3]; SPR, Single Cycle Kinetics, 1:1 binding model): 0.26 nM
CCCCN1C(=O)[C@@H]2CCN2C(=O)[C@H](C)N(C)C(=O)[C@H]([C@@H](C)CC)NC(=O)[C@H](CC(C)C)N(C)C(=O)C[C@@H](C(=O)N2CCOCC2)N(C)C(=O)[C@H](C2CCCC2)N(C)C(=O)C2(CCCC2)NC(=O)[C@@H]2CCCN2C(=O)[C@H](CCc2ccc(C(F)(F)F)c(Cl)c2)NC(=O)CN(C)C(=O)[C@@H]1Cc1ccc(C(F)(F)F)cc1 [PP0106] ([NMeL]I[NMeA][Aze][X17][Sar][hPhe(3-Cl-4-CF3)]P[Ac5c][NMeGly(cPent)][NMeD]-Morpholide; lactam N-11) | 0.19 | – | B (a compound having 3 or more and less than 10 is denoted as B) | C (A compound having a KD ratio of 0.1 or more and less than 3 is denoted as C) | –
CCCOC[C@H]1C(=O)N[C@@H]([C@@H](C)CC)C(=O)N(C)CC(=O)N(C)[C@H]2C/C=C\CCN(C2=O)[C@@H](Cc2ccc(C)cc2)C(=O)N(C)CC(=O)N[C@@H](CCc2cc(F)c(C(F)(F)F)c(F)c2)C(=O)N2C[C@H](CCC)C[C@H]2C(=O)NC2(CCCC2)C(=O)N(C)[C@@H](C2CCCC2)C(=O)N(C)[C@H](C(=O)N(C)C)CC(=O)N1C [PP2229] | – | 0.38 | A (a compound having 10 or more and less than 20 is denoted as A) | A (a compound having 10 or more and less than 20 is denoted as A) | –
CC[C@H](C)[C@@H]1NC(=O)[C@H](C)N(C)C(=O)C[C@@H](C(=O)N(C)C)N(C)C(=O)[C@H](C2CCCC2)N(C)C(=O)C2(CCC2)NC(=O)[C@@H]2CC(F)(F)CN2C(=O)[C@H](CCc2cc(F)c(C(F)(F)F)c(F)c2)NC(=O)CN(C)C(=O)[C@H](Cc2ccc(C(F)(F)F)cc2)N2CC/C=C\C[C@@H](C2=O)N(C)C(=O)CN(C)C1=O [PP1103, (2S,8S,14S,20S,23S,27S,30S,36S,38Z)-20-cyclopentyl-8-[2-[3,5-difluoro-4-(trifluoromethyl)phenyl]ethyl]-12,12-difluoro-N,N,4,19,22,26,27,32,35-nonamethyl-30-[(1S)-1-methylpropyl]-3,6,9,15,18,21,25,28,31,34,42-undecaoxo-2-[[4-(trifluoromethyl)phenyl]methyl]spiro[1,4,7,10,16,19,22,26,29,32,35-undecazatricyclo[34.5.1.0^10,14]dotetracont-38-ene-17,1′-cyclobutane]-23-carboxamide] | – | 0.036 | B (a compound having 3 or more and less than 10 is denoted as B) | A (a compound having 10 or more and less than 20 is denoted as A) | –
CCO[C@@H]1C[C@H]2C(=O)NC3(CC(C)(C)C3)C(=O)N(C)[C@@H](C(CC)CC)C(=O)N(C)[C@H](C(=O)N(C)C)CC(=O)N(C)[C@@H](CC3CCC3)C(=O)N[C@@H]([C@@H](C)CC)C(=O)N(C)CC(=O)N(C)[C@H]3C/C=C\CCN(C3=O)[C@@H](Cc3ccc(C(F)(F)F)cc3)C(=O)N(C)CC(=O)N[C@@H](CCc3ccc(C(F)(F)F)c(OC)c3)C(=O)N2C1 [PP2164] | – | 0.29 | A (a compound having 10 or more and less than 20 is denoted as A) | A (a compound having 10 or more and less than 20 is denoted as A) | –

The next lines start with results.

Kd [3, 6] [nM] | Kd ([3]; SPR, Single Cycle Kinetics) [nM] | Structure (SMILES) | HRAS/KRAS (ratio of KD value for HRAS to KD value for KRAS) [1, 4] | NRAS/KRAS (ratio of KD value for NRAS to KD value for KRAS) [2, 5] | other results
0.033 | – | CC[C@H](C)[C@@H]1NC(=O)[C@H](CC2CC2)N(C)C(=O)C[C@@H](C(=O)N(C)C)N(C)C(=O)[C@H](C2CCCC2)N(C)C(=O)C2(CC(C)(C)C2)NC(=O)[C@@H]2C[C@@H](F)CN2C(=O)[C@H](CCc2cc(F)c(C(F)(F)F)c(F)c2)NC(=O)CN(C)C(=O)[C@H](Cc2ccc(C)cc2)N2CC/C=C\C[C@@H](C2=O)N(C)C(=O)CN(C)C1=O [PP2804] | – | – | HRAS/KRAS (ratio of KD value with respect to GDP-bound HRAS wild-type protein to KD value with respect to KRAS) ([1]; SPR KD ratio HRAS/KRAS, class symbols): A (a compound having 10 or more and less than 20 is denoted as A); NRAS/KRAS (ratio of KD value with respect to GDP-bound NRAS wild-type protein to KD value with respect to KRAS) ([2]; SPR KD ratio NRAS/KRAS, class symbols): A (a compound having 10 or more and less than 20 is denoted as A)
– | 0.031 | CCO[C@@H]1C[C@H]2C(=O)NC3(CCC3)C(=O)N(C)[C@@H](C3CCCC3)C(=O)N(C)[C@H](C(=O)N(C)C)CC(=O)N(C)[C@@H](COC)C(=O)N[C@@H]([C@@H](C)CC)C(=O)N(C)CC(=O)N(C)[C@H]3C/C=C\CCN(C3=O)[C@@H](Cc3ccc(C(F)(F)F)cc3)C(=O)N(C)CC(=O)N[C@@H](CCc3cc(F)c(C(F)(F)F)c(F)c3)C(=O)N2C1 [PP1113, (2S,8S,12R,14S,20S,23S,27S,30S,36S,38Z)-20-cyclopentyl-8-[2-[3,5-difluoro-4-(trifluoromethyl)phenyl]ethyl]-12-ethoxy-27-(methoxymethyl)-N,N,4,19,22,26,32,35-octamethyl-30-[(1S)-1-methylpropyl]-3,6,9,15,18,21,25,28,31,34,42-undecaoxo-2-[[4-(trifluoromethyl)phenyl]methyl]spiro[1,4,7,10,16,19,22,26,29,32,35-undecazatricyclo[34.5.1.0^10,14]dotetracont-38-ene-17,1′-cyclobutane]-23-carboxamide] | A (a compound having 10 or more and less than 20 is denoted as A) | A (a compound having 10 or more and less than 20 is denoted as A) | –
– | 5 | CCO[C@@H]1C[C@H]2C(=O)NC3(CC(C)(C)C3)C(=O)N(C)[C@@H](C(CC)CC)C(=O)N(C)[C@H](C(=O)N(C)C)CC(=O)N(C)[C@@H](CC3CC3)C(=O)N[C@@H]([C@@H](C)CC)C(=O)N(C)CC(=O)N(C)[C@H]3C/C=C\CCN(C3=O)[C@@H](Cc3ccc(C(F)(F)F)cc3)C(=O)N(C)CC(=O)N[C@@H](CCc3cc(F)c(C(F)(F)F)c(F)c3)C(=O)N2C1 [PP2119] | B (a compound having 3 or more and less than 10 is denoted as B) | A (a compound having 10 or more and less than 20 is denoted as A) | –
